Data set [1] concerns the target T1, TMPK (Homo sapiens, UniProt P23919).
T1 sequence (P23919 1-212): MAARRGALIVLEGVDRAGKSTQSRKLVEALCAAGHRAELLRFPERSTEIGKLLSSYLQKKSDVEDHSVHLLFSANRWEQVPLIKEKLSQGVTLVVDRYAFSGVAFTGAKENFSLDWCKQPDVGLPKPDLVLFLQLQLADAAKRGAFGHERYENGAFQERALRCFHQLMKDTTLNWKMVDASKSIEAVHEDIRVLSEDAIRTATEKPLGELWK
Nature of the data set: In vitro TMPK inhibitory activity of TMPK inhibitor derivatives (inhibition yield). The data set is classed as biochemical. Details: GST (N, cleaved yes); made in house; host or cells: E. coli JM109 (pGEX-2T-hTMPK), inferred. The following applies: 2 μM; n=3 or 6; read-out: inhibition yield, normalized to compound 21 (YMU1) = 100%. From the text: Chemical structures of the different TMPK inhibitor derivatives tested for in vitro TMPK inhibitory activity and in vivo doxorubicin sensitization activity (in MDA-MB231 cells) are depicted below.

Another data set concerns MDA-MB231. Nature of the data set: Doxorubicin sensitization, MTS viability assay. The conditions noted are these: MDA-MB231 cell treatment, compound at 2 μM. It is filed as cell-based, human. As to the method:
(§1) FIG. 16. In vitro and in vivo effect of YMU1 on doxorubicin sensitization. (A) A panel of cell lines were pre-treated with vehicle, YMU1 (compound 21), D6 (ethyl 4-(2-chloroacetyl)piperazine-1-carboxylate) or D7 (compound 28) for 3 days and were exposed to different concentration of doxorubicin for 4 h. […] The enhancement (fold) of doxorubicin sensitivity in each cell line was calculated. Data represent mean±s.d., n=3; each experiment was quadruplex. Inset indicates the IC50 value of doxorubicin in various cell lines. […] Following overnight culture, cells were refreshed with growth medium. After 14 days of culture, colonies were fixed, stained by crystal violet and counted. (C) HCT-116 p53^−/− cells were subcutaneously implanted in the right flank of Balb/c nude mice (each experimental group n=8). Arrow indicated the time of stopping drug treatment. The tumor volume was estimated as described in Methods of the Invention section. (D) After 2 weeks recovered from treatment, mice were sacrificed for tumor weight measurement. Data represent mean±s.e.m; **, P<0.01 by a two-tailed Student's t-test. (E) Ki 67 proliferation marker staining of tumor shown in left panel. Scale bar, 50 μm. (F) Model of doxorubicin sensitization by YMU1 in malignant cancer cells. Both R2/R1 and TMPK are recruited to the site of doxorubicin-induced double-strand breaks, where dATP, dGTP, dCTP, dTTP and dUTP are site-specific synthesized. Inhibition of TMPK decreases dTTP formation at DNA damage sites, causing futile DNA repair due to dUTP incorporation.
(§2) Next, various human cancer cell lines were treated with YMU1, D6 or D7 for 72 h to test the potential of TMPK inhibitor in doxorubicin sensitization. After exposure to different concentration of doxorubicin for 4 h, cells were refreshed for viability analysis after 2 days and the IC50 value for doxorubicin in each of the cell lines was determined (FIG. 16A and Table 2).
(§3) Cells plated into a 96-well plate (10^3 cells/well) were treated and cell viability was measured by MTS assay (Promega) (Cory et al., 1991). An annexin V-fluorescein isothiocyanate (FITC) apoptosis kit (Calbiochem) was used to detect apoptosis. The cell cycle analysis was performed by staining cells with propidium iodide (PI) for fluorescence-activated cell sorter (FACS) analysis with CellQuest software.

Data set [2] concerns the target T1, TMPK. The data set is described as follows: Luciferase-coupled TMPK assay. It is filed as biochemical. Details: GST (N, cleaved yes); made in house; host or cells: E. coli JM109 (pGEX-2T-hTMPK). The following applies: purified hTMPK protein (0.5 μg), 10 min preincubation. As to the method: FIG. 12. Identification of a novel hTMPK inhibitor. (A) A screen of TMPK inhibitor by luciferase-coupled assay. (B) The chemical structures of YMU1 (compound 21) and related molecules. (C) Effect of YMU1 and derivative compounds on hTMPK inhibition using purified hTMPK protein (0.5 μg) with 10 min preincubation prior to reaction using luciferase-coupled TMPK analysis. (D) Effect of YMU1 on activity of purified TMPK (0.5 μg) and GST-hTK1 protein (5 μg) with 10 min preincubation prior to reaction. Data represent mean±s.d. (n=4) (E) Molecular models of the TMPK-YMU1 complex. Left panel: TMPK/ATP/Mg+2; right panel: TMPK/YMU1. The TMPK is represented in surface electrostatic potential (upper) and structural ribbon (lower). ATP and YMU1 are shown in green and blue stick, respectively, with colored atom (O, red; S, yellow; P, orange). TMP is shown in white backbone and Mg+2 in purple. Arrow indicates the position of Asp15.
Based on the functional requirement of TMPK in DNA repair specifically in tumor cells with elevated level of R2 expression, we searched for inhibitors of hTMPK that might be useful in selectively sensitizing tumor cells to doxorubicin. […] The synthetic procedure and structural elucidation of YMU1 (compound 21) are described in the Methods of the Invention section of the application.
The TMPK reaction was started by adding purified hTMPK in 50 μl of TMPK assay buffer (100 mM Tris-HCl, pH 7.5, 100 mM KCl, 10 mM MgCl2, 50 μM ATP and 100 μM dTMP) in 96 wells plate at 25° C. for 10 min and terminated by adding 200 μl of DTNB (100 μM), followed by transferring 10 μl of reaction solution to a white 96-wellplate containing 90 μl of luciferase assay buffer (50 mM Glycine, 0.5 mM EDTA and 5 mM EDTA, pH 7.0, 0.1 μg of luciferase, 50 μM luciferin and 0.1% BSA). The luminescence was measured with a luminescence counter (Packard).

The subject of another data set is panel of cell lines. The data set is described as follows: Doxorubicin sensitization, MTS viability assay, summary over the panel of cell lines. It is filed as cell-based, human. The following applies: all these cell lines; 72 h pre-treatment. As to the method:
as §1, §2
The ability of YMU1 to sensitize non-tumorigenic mammary cycling H184B5F5/M10, MCF10A, primary human mammary epithelial (HMEC) and primary renal epithelial (HREC) cells and IMR-90 embryonic lung fibroblasts to doxorubicin was much weaker.
as §3

Entries after “also recorded” stand apart in the source; their conditions may differ.

The compound `COC(=O)Cn1sc2nc(C)cc(C)c2c1=O` [compound 7, Methyl 2-(4,6-dimethyl-3-oxoisothiazolo[5,4-b]pyridin-2(3H)-yl)acetate] registered a melting point of 89 to 91 °C. Further, on TMPK [1], the inhibition at 2 µM amounted to 98.3%.

On to `O=C(Cn1sc2ccccc2c1=O)N1CCNCC1` [compound 10, 2-(2-Oxo-2-(piperazin-1-yl)ethyl)benzo[d]isothiazol-3(2H)-one], for which the “enhancement on doxorubicin sensitization” value in the data set on MDA-MB231 is “had no effect”. In addition, at TMPK [2], the “inhibition against hTMPK” value was “considerable inhibitory function”. For the same compound, the inhibition at 2 µM at TMPK [1] is 96.8%.

In the case of `Cc1cc(C)c2c(=O)[nH]sc2n1` [compound 4, 4,6-Dimethylisothiazolo[5,4-b]pyridin-3(2H)-one], on TMPK [2] (listed as D3), the “inhibition against hTMPK” value was “weak inhibitory activity; also recorded: do not inhibit TMPK”. Further, the inhibition at 2 µM on TMPK [1] turned out to be 28%.

`Cc1cc(C)c2c(OCC(=O)N3CCOCC3)nsc2n1` [compound 27, 2-(4,6-Dimethylisothiazolo[5,4-b]pyridin-3-yloxy)-1-morpholinoethanone] gave a melting point of 153 to 155 °C. Besides, on TMPK [1], the inhibition at 2 µM turned out to be 16%.

As to `CCOC(=O)N1CCN(C(=O)COc2nsc3nc(C)cc(C)c23)CC1` [compound 28, Ethyl 4-(2-(4,6-dimethylisothiazolo[5,4-b]pyridin-3-yloxy)acetyl)piperazine-1-carboxylate], the melting point was in the range of 88 to 90 °C. Moreover, the doxorubicin sensitization effect entry in the data set on panel of cell lines is “had no doxorubicin sensitization effect”. Also, the “inhibition against hTMPK” value on TMPK [2] (listed as D7) is “Neither D6 (as the piperazine fragment of YMU1) nor D7 (as the O-alkylation isomer of YMU1) showed any inhibition; also recorded: do not inhibit TMPK”. In addition, the inhibition at 2 µM on TMPK [1] turned out to be 14.7%.

For the compound `CC(C)(C)OC(=O)N1CCN(C(=O)Cn2sc3ccccc3c2=O)CC1` [compound 12, Tert-butyl 4-(2-(3-oxobenzo[d]isothiazol-2(3H)-yl)acetyl)piperazine-1-carboxylate], the “enhancement on doxorubicin sensitization” value with MDA-MB231 amounted to 30 fold. At TMPK [1], the inhibition at 2 µM was 124%.

In the case of `Cc1cc(C)c2c(=O)n(CC(=O)N3CCOCC3)sc2n1` [compound 19, 4,6-Dimethyl-2-(2-morpholino-2-oxoethyl)isothiazolo[5,4-b]pyridin-3(2H)-one], the “enhancement on doxorubicin sensitization” value with MDA-MB231 was “had no effect”. In addition, the inhibition at 2 µM on TMPK [1] was determined as 100%.

`CCOC(=O)N1CCN(C(=O)CI)CC1` [D6, ethyl 4-(2-iodoacetyl)piperazine-1-carboxylate]: the doxorubicin sensitization effect entry with panel of cell lines is recorded as “had no doxorubicin sensitization effect”. For the same compound, on TMPK [2], the “inhibition against hTMPK” value is listed as “Neither D6 (as the piperazine fragment of YMU1) nor D7 (as the O-alkylation isomer of YMU1) showed any inhibition; also recorded: do not inhibit TMPK”.

As to `O=C(Cn1sc2ccccc2c1=O)N1CCN(C(=O)Oc2ccc([N+](=O)[O-])cc2)CC1` [compound 14, 4-Nitrophenyl 4-(2-(3-oxobenzo[d]isothiazol-2(3H)-yl)acetyl)piperazine-1-carboxylate], on TMPK [1], the inhibition at 2 µM was determined as 129%.

The values are drawn from US9278982B2, “Targeting human thymidylate kinase induces DNA repair toxicity in malignant tumor cells” (NATIONAL YANG-MING UNIVERSITY, priority 2010, dated 2016).
